Measurements reported in patent publication US20230339970A1, “CASEIN KINASE 1 DELTA MODULATORS” (priority 2020, published 2023).

What was measured:
[1] = target: T1, human recombinant GST cleaved CSNK1D (Homo sapiens, UniProt P48730); experiment: Purified Enzyme Assay (ADP-Glo CSNK1D Kinase Assay); assay type: biochemical; settings: 2 nM CSNK1D; peptide substrate 150 μM; ATP 20 μM; 45 minutes at room temperature
T1 construct: GST (cleaved yes); purchased University of Dundee clone DU 19064
In short: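 GST-cleaved human recombinant CSNK1D phosphorylates peptide PLSRTL-pS-VASLPGL with ATP; compounds added in dose-response, 45 min at room temperature. ADP formed measured by ADP-Glo luminescence and converted to percent activity.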

[2] = target: T2, human CSNK1D (Homo sapiens, UniProt P48730); experiment: Whole Cell nBRET CSNK1D Binding Assay; settings: living CHO cells stably expressing human CSNK1D tagged with nanoluciferase; NanoBret tracer 130 nM; 2 hours at 37 C
T2 construct: expressed in transfected cells
T2 sequence (P48730 whole entry): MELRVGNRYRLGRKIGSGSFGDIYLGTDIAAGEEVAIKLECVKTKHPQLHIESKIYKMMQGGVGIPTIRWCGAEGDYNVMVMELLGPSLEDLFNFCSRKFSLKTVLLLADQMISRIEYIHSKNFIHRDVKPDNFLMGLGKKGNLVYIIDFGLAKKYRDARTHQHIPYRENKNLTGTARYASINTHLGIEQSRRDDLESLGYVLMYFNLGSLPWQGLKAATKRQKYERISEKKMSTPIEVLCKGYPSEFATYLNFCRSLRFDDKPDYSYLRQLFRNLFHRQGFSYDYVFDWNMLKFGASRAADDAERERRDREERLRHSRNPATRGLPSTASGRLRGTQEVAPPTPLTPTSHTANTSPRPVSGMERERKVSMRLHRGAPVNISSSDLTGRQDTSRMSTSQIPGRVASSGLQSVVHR

T1 sequence (P48730 whole entry): as above

SMILES: CC1(C(F)(F)F)Cn2nc(-c3ccc(F)cc3)c(-c3ccnc4[nH]ncc34)c2CO1 (single isomer, unassigned) [Example 417, (*)-2-(4-Fluorophenyl)-6-methyl-3-(1H-pyrazolo[3,4-b]pyridin-4-yl)-6-(trifluoromethyl)-6,7-dihydro-4H-pyrazolo[5,1-c][1,4]oxazine]
- IC50 [1]: 1 nM
- IC50 [2]: 3 nM

SMILES: CC1(O)COCc2c(-c3ccnc4[nH]ncc34)c(-c3ccc(F)cn3)nn2C1 (stereo not drawn) [Example 484, 2-(5-Fluoropyridin-2-yl)-7-methyl-3-(1H-pyrazolo[3,4-b]pyridin-4-yl)-7,8-dihydro-4H,6H-pyrazolo[5,1-c][1,4]oxazepin-7-ol]
- IC50 [1]: 231 nM
- IC50 [2]: > 10000 nM

SMILES: COCC1(F)CCc2c(-c3ccnc4[nH]ncc34)c(-c3ccc(F)cn3)nn2C1 (single isomer, unassigned) [Example 301, (*R)-4-[6-Fluoro-2-(5-fluoro-2-pyridyl)-6-(methoxymethyl)-5,7-dihydro-4H-pyrazolo[1,5-a]pyridin-3-yl]-1H-pyrazolo[3,4-b]pyridine]
- IC50 [1]: 4 nM
- IC50 [2]: 110 nM

SMILES: Fc1ccc(-c2nn3c(c2-c2ccnc4[nH]ncc24)COCC3)cc1 [Example 70, 2-(4-Fluorophenyl)-3-(1H-pyrazolo[3,4-b]pyridin-4-yl)-6,7-dihydro-4H-pyrazolo[5,1-c][1,4]oxazine]
- IC50 [1]: 2 nM
- IC50 [2]: 37 nM

SMILES: Cc1cc(-c2c(-c3ccc(F)cn3)nn3c2O[C@H](C)C[C@H]3C)c2cn[nH]c2n1 (single isomer, unassigned) [Example 208, (5*R,7*R)-2-(5-Fluoro-2-pyridyl)-5,7-dimethyl-3-(6-methyl-1H-pyrazolo[3,4-b]pyridin-4-yl)-6,7-dihydro-5H-pyrazolo[5,1-b][1,3]oxazine]
- IC50 [1]: 26 nM
- IC50 [2]: 821 nM

SMILES: Cc1cc(-c2c(-c3ccc(F)cc3)nn3c2OCC(C)C3)c2cn[nH]c2n1 (racemic) [Example 192, (R/S)-2-(4-Fluorophenyl)-6-methyl-3-(6-methyl-1H-pyrazolo[3,4-b]pyridin-4-yl)-6,7-dihydro-5H-pyrazolo[5,1-b][1,3]oxazine]
- IC50 [1]: 1 nM
- IC50 [2]: 4 nM

SMILES: Cc1cc(-c2c(-c3cscn3)nn3c2CCCC3)c2cn[nH]c2n1 [Example 32, 4-(3-(6-Methyl-1H-pyrazolo[3,4-b]pyridin-4-yl)-4,5,6,7-tetrahydropyrazolo[1,5-a]pyridin-2-yl)thiazole]
- IC50 [1]: 60 nM
- IC50 [2]: 3020 nM

SMILES: Fc1ccc(-c2nn3c(c2-c2ccnc4[nH]ccc24)COCC3)nc1 [Example 1, 2-(5-Fluoro-2-pyridyl)-3-(1H-pyrrolo[2,3-b]pyridin-4-yl)-6,7-dihydro-4H-pyrazolo[5,1-c][1,4]oxazine]
- IC50 [1]: 10 nM
- IC50 [2]: 81 nM

SMILES: CC1(C)Cn2nc(-c3ccc(F)cn3)c(-c3ccnc4cn[nH]c34)c2CO1 [Example 139, 2-(5-Fluoropyridin-2-yl)-6,6-dimethyl-3-(1H-pyrazolo[4,3-b]pyridin-7-yl)-6,7-dihydro-4H-pyrazolo[5,1-c][1,4]oxazine]
- IC50 [1]: 450 nM
- IC50 [2]: > 10000 nM

SMILES: Cc1nc(-c2c(-c3ccc(F)cc3)nn3c2CCC3)c2cn[nH]c2n1 [Example 225, 4-[2-(4-Fluorophenyl)-5,6-dihydro-4H-pyrrolo[1,2-b]pyrazol-3-yl]-6-methyl-1H-pyrazolo[3,4-d]pyrimidine]
- IC50 [1]: 8 nM
- IC50 [2]: 88 nM

SMILES: CC1(C)Cn2nc(-c3ccc(F)cn3)c(-c3ccnc4[nH]nc(Cl)c34)c2CO1 [Example 388, 3-(3-Chloro-1H-pyrazolo[3,4-b]pyridin-4-yl)-2-(5-fluoropyridin-2-yl)-6,6-dimethyl-6,7-dihydro-4H-pyrazolo[5,1-c][1,4]oxazine]
- IC50 [1]: 4 nM
- IC50 [2]: 14 nM

SMILES: Fc1ccc(-c2nn3c(c2-c2ccnc4[nH]nc(Cl)c24)OCC2(CC2)C3)nc1 [Example 458, 3′-(3-Chloro-1H-pyrazolo[3,4-b]pyridin-4-yl)-2′-(5-fluoropyridin-2-yl)-5′H,7′H-spiro[cyclopropane-1,6′-pyrazolo[5,1-b][1,3]oxazine]]
- IC50 [1]: 1 nM
- IC50 [2]: 7 nM

SMILES: CC1(C)Cn2nc(-c3ccc(F)cn3)c(-c3ccnc(NC(=O)CC(F)(F)F)c3)c2CO1 [Example 133, 3,3,3-Trifluoro-N-(4-(2-(5-fluoropyridin-2-yl)-6,6-dimethyl-6,7-dihydro-4H-pyrazolo[5,1-c][1,4]oxazin-3-yl)pyridin-2-yl)propenamide]
- IC50 [1]: 2 nM
- IC50 [2]: 8 nM

SMILES: Fc1ccc(-c2nn3c(c2-c2ccnc4[nH]ncc24)OCC2(C3)CC2(F)F)cc1 (single isomer, unassigned) [Example 476, (*S)-2,2-Difluoro-2′-(4-fluorophenyl)-3′-1H-pyrazolo[3,4-b]pyridin-4-yl)-5′H,7′H-spiro[cyclopropane-1,6′-pyrazolo[5,1-b][1,3]oxazine]]
- IC50 [1]: 1 nM
- IC50 [2]: 1 nM

SMILES: Cc1nc(-c2c(-c3ccc(F)cc3)nn3c2COC(C(F)(F)F)C3)c2cn[nH]c2n1 (single isomer, unassigned) [Example 376, (*R)-2-(4-Fluorophenyl)-3-(6-methyl-1H-pyrazolo[3,4-d]pyrimidin-4-yl)-6-(trifluoromethyl)-6,7-dihydro-4H-pyrazolo[5,1-c][1,4]oxazine]
- IC50 [1]: 4 nM
- IC50 [2]: 74 nM

SMILES: Fc1ccc(-c2nn3c(c2-c2ccnc4[nH]ncc24)CC[C@H]2C[C@H]23)cc1 (stereo in doubt) [Example 339, (5a*S,6a*R)-2-(4-Fluorophenyl)-3-(1H-pyrazolo[3,4-b]pyridin-4-yl)-5,5a,6,6a-tetrahydro-4H-cyclopropa[e]pyrazolo[1,5-a]pyridine]
- IC50 [1]: 1 nM
- IC50 [2]: 7 nM

SMILES: [2H]C([2H])([2H])[C@@]1(C(F)(F)F)Cn2nc(-c3ccc(F)cn3)c(-c3ccnc4[nH]nc(Cl)c34)c2CO1 (single isomer, unassigned) [Example 427, (*S)-3-(3-Chloro-1H-pyrazolo[3,4-b]pyridin-4-yl)-2-(5-fluoropyridin-2-yl)-6-(methyl-d3)-6-(trifluoromethyl)-6,7-dihydro-4H-pyrazolo[5,1-c][1,4]oxazine]
- IC50 [1]: 4 nM
- IC50 [2]: 19 nM

SMILES: Cc1cc(-c2c(-c3ccc(F)cn3)nn3c2CC(C)(C)C3)c2cc[nH]c2n1 [Example 235, 4-[2-(5-Fluoro-2-pyridyl)-5,5-dimethyl-4,6-dihydropyrrolo[1,2-b]pyrazol-3-yl]-6-methyl-1H-pyrrolo[2,3-b]pyridine]
- IC50 [1]: 1 nM
- IC50 [2]: 8 nM

SMILES: COCC1(F)CCc2c(-c3c(F)cnc4[nH]ncc34)c(-c3ccc(F)cn3)nn2C1 (single isomer, unassigned) [Example 302, (*S)-5-Fluoro-4-[6-fluoro-2-(5-fluoro-2-pyridyl)-6-(methoxymethyl)-5,7-dihydro-4H-pyrazolo[1,5-a]pyridin-3-yl]-1H-pyrazolo[3,4-b]pyridine]
- IC50 [1]: 132 nM
- IC50 [2]: 3250 nM

SMILES: [2H]C([2H])([2H])[C@@]1(C(F)(F)F)Cn2nc(-c3ccc(F)cn3)c(-c3c(F)c(C)nc4[nH]nc(C)c34)c2CO1 (single isomer, unassigned) [Example 431, (*S)-3-(5-Fluoro-3,6-dimethyl-1H-pyrazolo[3,4-b]pyridin-4-yl)-2-(5-fluoropyridin-2-yl)-6-(methyl-d3)-6-(trifluoromethyl)-6,7-dihydro-4H-pyrazolo[5,1-c][1,4]oxazine]
- IC50 [1]: 1580 nM
- IC50 [2]: > 10000 nM

SMILES: Fc1ccc(-c2nn3c(c2-c2ccnc4[nH]ncc24)CC2(C3)CC2(F)F)nc1 (single isomer, unassigned) [Example 254, (*S)-1′1l′-Difluoro-2-(5-fluoro-2-pyridyl)-3-(1H-pyrazolo[3,4-b]pyridin-4-yl)spiro[4,6-dihydropyrrolo[1,2-b]pyrazole-5,2′-cyclopropane]]
- IC50 [1]: 4 nM
- IC50 [2]: 85 nM

SMILES: C[C@@H]1[C@@H](C)OCc2c(-c3ccnc4[nH]ncc34)c(-c3ccc(F)cc3)nn21 (relative stereo) [Example 114, (6*R,7*R)-2-(4-Fluorophenyl)-6,7-dimethyl-3-(1H-pyrazolo[3,4-b]pyridin-4-yl)-6,7-dihydro-4H-pyrazolo[5,1-c][1,4]oxazine]
- IC50 [1]: 6 nM
- IC50 [2]: 55 nM

SMILES: c1csc(-c2nn3c(c2-c2ccnc4[nH]ncc24)CCCC3)n1 [Example 29, 2-(3-(1H-Pyrazolo[3,4-b]pyridin-4-yl)-4,5,6,7-tetrahydropyrazolo[1,5-a]pyridin-2-yl)thiazole]
- IC50 [1]: 35 nM
- IC50 [2]: 1200 nM

SMILES: C[C@]1(C(F)(F)F)Cn2nc(-c3ccc(F)cn3)c(-c3ccn4nccc4c3)c2CO1 (single isomer, unassigned) [Example 414, (*R)-2-(5-Fluoropyridin-2-yl)-6-methyl-3-(pyrazolo[1,5-a]pyridin-5-yl)-6-(trifluoromethyl)-6,7-dihydro-4H-pyrazolo[5,1-c][1,4]oxazine]
- IC50 [1]: 8 nM
- IC50 [2]: 330 nM

SMILES: Cc1nc2[nH]ncc2c(-c2c(-c3ccc(F)cn3)nn3c2CC[C@]2(C3)CC2(F)F)c1F (single isomer, unassigned) [Example 332, (*R)-2,2-Difluoro-3′-(5-fluoro-6-methyl-1H-pyrazolo[3,4-b]pyridin-4-yl)-2′-(5-fluoropyridin-2-yl)-4′,5′-dihydro-7′H-spiro[cyclopropane-1,6′-pyrazolo[1,5-a]pyridine]]
- IC50 [1]: 1 nM
- IC50 [2]: 12 nM

SMILES: CC1COc2c(-c3ccnc4ccsc34)c(-c3ccc(F)cn3)nn2C1 (stereo not drawn) [Example 195, 2-(5-Fluoropyridin-2-yl)-6-methyl-3-(thieno[3,2-b]pyridin-7-yl)-6,7-dihydro-5H-pyrazolo[5,1-b][1,3]oxazine]
- IC50 [1]: 21 nM
- IC50 [2]: 218 nM

SMILES: CC(=O)Nc1cc(-c2c(-c3ccc(F)cn3)nn3c2CC[C@H]2C[C@H]23)ccn1 (stereo in doubt) [Example 342, N-(4-((5a*S,6a*R)-2-(5-Fluoropyridin-2-yl)-5,5a,6,6a-tetrahydro-4H-cyclopropa[e]pyrazolo[1,5-a]pyridin-3-yl)pyridin-2-yl)acetamide]
- IC50 [1]: 20 nM
- IC50 [2]: 454 nM
